The target in data set [1] is T1, truncated Manduca EcR-VP16 (Manduca sexta, UniProt P49883).
T1 construct: A truncated Manduca EcR containing domains C, D and E of the receptor was constructed as follows; engineered start Met (in-frame ATG) (N); expressed in transfected cells; host or cells: S2 Drosophila cells (ATCC CRL-1963), transiently transfected with plasmid MMV (pPacU backbone)
Briefly: Cell-based luciferase reporter assay of transcriptional activation by EcR receptor plasmid (MMV) in S2 Drosophila cells. The note with it: ligand 2 μM, harvested 24 hours after addition, ratio relative to reporter construct without ligand. The text has this: A minimal promoter vector was made by ligating a synthetic TATA box sequence oligonucleotide pair, 5′-agcttgagggtataatg-3′ (SEQ ID NO: 1) and 3′-actcccatattactcga-5′ (SEQ ID NO:2), into the HindIII site of vector pGL3-basic (Promega) so that the HindIII site was recreated 5′ to the inserted oligonucleotide and destroyed between the oligonucleotide and the downstream luciferase gene. This vector was designated TATA5.
The binding site from the hsp27 gene (Koelle et al., Cell 67(1): 59-77 (1991)) was made with the oligonucleotide pair, 5′-[…]-3′ (SEQ ID NO:3) and 3′-[…]-5′ (SEQ ID NO:4). This site was multimerized and ligated into the BglII site of vector TATA-5. One isolate, pCGS154, contained the sequence below in the inserted region, having 2 pairs of sites in inverted orientations. […] The sequence of the inserted region in pCGS154 is shown below:
PCR primers were designed based on the published sequence for Manduca Sexta ecdysone receptor (EcR) (genbank accession number U19812 (SEQ ID Nos:6 and 7) to clone the gene in two halves. RNA was prepared from prepupae larva of Manduca sexta using the LiCl/phenol method (Current Protocols in Molecular Biology, Vol. 1, Unit 4.3, 1987, John Wiley and Sons, publishers) and 1 μg of total RNA was used to prepare cDNA using MMLV reverse transcriptase (Promega). The cDNA was used in a PCR reaction with the primers described above to generate two PCR products for the 5′ and 3′ halves of the gene. These were subcloned into the pGEM-TA vector (Promega) and sequenced. The two fragments were joined at a unique Ndel site within each fragment and ligated into pBS-KS (Stratagene) to create a full length Manduca sexta EcR clone named pBSFLMa. A HindIII site followed by an inframe stop codon and BamHI site was placed at the 3′ end of the E domain (ligand binding domain) of the Manduca EcR receptor using the oligonucleotide: 5′-[…]-3′ (SEQ ID NO:8).
A truncated Manduca EcR containing domains C, D and E of the receptor was constructed as follows. A BamHI site and in-frame ATG was engineered just 5′ to the C domain using the degenerate primers 5′-ggatccatgggycgagaagaattrtcaccr-3′ (SEQ ID NO:9) and 5′-ccacrtcccagatctcctcga-3′ (SEQ ID NO:10). This fragment was then joined using the Nde site to the 3′ end of Manduca EcR, which has an engineered HindIII site at the 3′ end as described above.
A fragment containing the herpes simplex VP16 transactivation domain was cloned from plasmid 35S/USP-VP16 (U.S. Pat. No. 5,880,333) using the PCR primers 5′-aagcttgcccccccgaccg-3′ (SEQ ID NO:11) (placing a HindIII site at the 5′ end of the domain) and 5′-[…]-3′ (SEQ ID NO:12) (placing an inframe stop codon followed by BamHI and Xbal sites at the 3′ end of the domain). The VP16 domain was fused in frame to the 3′ end of the E domain of the ecdysone receptor using the HindIII site 3′ to EcR clone and the HindIII site engineered at the 5′ end of VP16.
The plasmid pPacU (Courey A J and Tjian R (1988) Cell 55, 887-898) was used as the starting vector for expression constructs. The truncated Manduca EcR-VP16 was ligated into pPacU using the BamHI sites flanking the coding region to create the construct referred to as MMV.
An in vivo cell based assay was used to measure transcriptional activation by the EcR receptor plasmid in the presence of the chemical ligands as described above. S2 Drosophila cells (ATCC CRL-1963) (commonly known as cells from the fruit fly) were transiently transfected with luciferase reporter (pCGS154) and receptor expression plasmid (MMV) using the calcium phosphate precipitation procedure (Di Nocera and David (1983) PNAS 80, 7095-7098). S2 cells were plated in 96 well format at a density of 2×10^5 in 166.6 μl of Schneider's Drosophila media supplemented with antibiotics and 10% heat inactivated fetal bovine serum (GIBO-BRL). […]
Background: In a reporter assay the amount or activity of a reporter protein is the signal.

In the next data set the test system is Spodoptera littoralis. Briefly: Spodoptera littoralis larvicide, feeding/contact activity on sprayed cotton leaf discs. The note with it: foliar, L1 larvae on sprayed cotton leaf discs, checked 2 and 6 days after treatment, read-out: Insecticidal activity (EC80 ppm) SPODLI. Format: in vivo. The text has this: Spodoptera littoralis (abbreviated as SPODLI) (commonly known as Egyptian cotton leafworm): larvicide, feeding/contact activity. Cotton leaf discs were placed on agar in petri dishes and individually sprayed with test solution of cyanoenamine in an application chamber. After drying, the leaf discs were infested with 20 to 25 L1 larvae. The samples were checked for mortality, repellent effect, feeding behavior, and growth regulation 2 and 6 days after treatment. Each of Spodopertera littoralis and Heliothis virescens is a larval form of an insect in the order Lepidoptera.

In another data set the test system is Heliothis virescens. Description: Heliothis virescens ovo-larvicide, feeding/contact activity on eggs on artificial diet. Format: in vivo. The note with it: 144 h, fresh eggs (0 to 24 hours old) on artificial diet, 6 days incubation, read-out: Insecticidal activity (EC80 ppm) Hv. The method, then:
Heliothis virescens (abbreviated as Hv) (commonly known as tobacco budworm): ovo-larvicide, feeding/contact activity. 30 to 35 fresh eggs (0 to 24 hours old), deposited on filter paper, were placed in petri dishes on a layer of artificial diet and 0.8 mL of each test solution of cyanoenamine was individually pipetted onto them. After an incubation period of 6 days, samples were checked for egg mortality, larval mortality, and growth regulation.
Each of Spodopertera littoralis and Heliothis virescens is a larval form of an insect in the order Lepidoptera.

The results in this text go back to patent US20030109705A1, “Novel cyanoenamines useful as ligands for modulating gene expression in plants or animals” (priority 2001, published 2003).

≈ marks a conversion by molar mass, not a printed value.

T1 sequence (P49883 112-535, added parts left off): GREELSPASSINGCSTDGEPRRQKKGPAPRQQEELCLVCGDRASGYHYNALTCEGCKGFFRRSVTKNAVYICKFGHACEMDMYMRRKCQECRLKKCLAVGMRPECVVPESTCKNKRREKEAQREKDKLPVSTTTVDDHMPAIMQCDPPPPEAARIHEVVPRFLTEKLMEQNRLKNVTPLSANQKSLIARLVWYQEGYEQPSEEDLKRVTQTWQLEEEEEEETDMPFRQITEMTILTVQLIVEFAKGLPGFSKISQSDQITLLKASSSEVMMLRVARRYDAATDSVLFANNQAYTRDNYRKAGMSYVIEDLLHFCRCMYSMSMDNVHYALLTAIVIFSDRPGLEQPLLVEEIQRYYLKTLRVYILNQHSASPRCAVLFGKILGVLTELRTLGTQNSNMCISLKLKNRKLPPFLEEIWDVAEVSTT
T1 sequence (P20153 whole entry partner, the tested form may be a part): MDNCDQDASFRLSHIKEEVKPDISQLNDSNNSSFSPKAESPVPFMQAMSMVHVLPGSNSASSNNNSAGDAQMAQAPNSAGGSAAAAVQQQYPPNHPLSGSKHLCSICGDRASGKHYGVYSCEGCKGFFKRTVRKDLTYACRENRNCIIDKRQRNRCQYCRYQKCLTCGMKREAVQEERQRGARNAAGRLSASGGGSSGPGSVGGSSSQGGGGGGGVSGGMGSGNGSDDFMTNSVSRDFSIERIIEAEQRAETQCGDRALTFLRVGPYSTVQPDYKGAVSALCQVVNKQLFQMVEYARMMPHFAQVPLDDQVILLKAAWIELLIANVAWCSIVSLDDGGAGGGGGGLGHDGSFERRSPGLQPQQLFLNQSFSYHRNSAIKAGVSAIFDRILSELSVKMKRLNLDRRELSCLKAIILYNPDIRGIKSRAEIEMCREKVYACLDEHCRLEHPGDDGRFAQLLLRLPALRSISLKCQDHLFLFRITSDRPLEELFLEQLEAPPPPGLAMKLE

In the case of `COc1cccc(C(=O)N/C(=C(/C#N)c2cc(C)cc(C)c2)C(C)(C)C)c1C` [drawing 462], the “Gene switch activity fold induction” value in data set [1] is on record as 314 fold induction.

On to `Cc1cc(C)cc(/C(C#N)=C(\NC(=O)c2cccc(Cl)c2C)C(C)(C)C)c1` [drawing 443], for which the figures for the EC80 in the data set with Spodoptera littoralis and with Heliothis virescens were 50 µg/mL (≈ 131 µM) and 5 µg/mL (≈ 13.1 µM), respectively.

On to `Cc1cccc(/C(C#N)=C(\NC(=O)c2cccc(Br)c2C)C(C)(C)C)c1` [drawing 444], for which the EC80 in the data set on Spodoptera littoralis and in the data set on Heliothis virescens was 200 µg/mL (≈ 486 µM) each time.

As for `Cc1cccc(C(=O)N/C(=C(/C#N)c2ccccc2)C(C)(C)C)c1C`, in data set [1], the “Gene switch activity fold induction” value worked out at 636 fold induction.

Take `COc1cccc(C(=O)N/C(=C(/C#N)c2ccccc2)C(C)(C)C)c1C`: in data set [1], the “Gene switch activity fold induction” value was found to be 913 fold induction.

Turning to `Cc1cc(C)cc(/C(C#N)=C(\NC(=O)c2cccc(Cl)c2Cl)C(C)(C)C)c1`, the “Gene switch activity fold induction” value in data set [1] was 1145 fold induction.

As to `CCc1ccc(C(=O)N/C(=C(/C#N)c2ccccc2)C(C)(C)C)cc1` [drawing 450], the EC80 with Spodoptera littoralis and in the data set with Heliothis virescens was greater than 100 µg/mL each time.

Consider `Cc1cc(C)cc(/C(C#N)=C(\NC(=O)c2cccc(Br)c2C)C(C)(C)C)c1` [drawing 445], for which the EC80 with Spodoptera littoralis and in the data set with Heliothis virescens was greater than 50 µg/mL throughout.

Consider `CCc1c(OC)cccc1C(=O)N/C(=C(/C#N)c1ccccc1)C(C)(C)C`, for which, in data set [1], the “Gene switch activity fold induction” value came to 239 fold induction.

As for `COc1cccc(C(=O)N/C(=C(/C#N)c2cccc(C)c2)C(C)(C)C)c1C` [drawing 449], the EC80 with Spodoptera littoralis and in the data set on Heliothis virescens was 200 µg/mL (≈ 552 µM) throughout.

Turning to `Cc1cc(C)cc(/C(C#N)=C(\NC(=O)c2cccc(Cl)c2C)C(C)(C)C)c1` [drawing 453], the “Gene switch activity fold induction” value in data set [1] was determined as 225 fold induction.

As to `CC(C)(C)/C(NC(=O)c1c(F)cccc1F)=C(\C#N)c1ccccc1` [drawing 459], the “Gene switch activity fold induction” value in data set [1] was determined as 29 fold induction.

Turning to `Cc1cc(C)cc(/C(C#N)=C(\NC(=O)c2cccc(C)c2C)C(C)(C)C)c1` [drawing 447], the EC80 in the data set on Spodoptera littoralis and with Heliothis virescens was 50 µg/mL (≈ 139 µM) each time.

As for `COc1cccc(C(=O)N/C(=C(/C#N)c2cccc(C)c2)C(C)(C)C)c1C` [drawing 463], the “Gene switch activity fold induction” value in data set [1] is listed as 364 fold induction.

Regarding `Cc1c(Cl)cccc1C(=O)N/C(=C(/C#N)c1ccccc1)C(C)(C)C`, in data set [1], the “Gene switch activity fold induction” value was found to be 191 fold induction.

On to `Cc1c(Br)cccc1C(=O)N/C(=C(/C#N)c1ccccc1)C(C)(C)C`, for which the “Gene switch activity fold induction” value in data set [1] is given as 1112 fold induction.

Consider `COc1cccc(C(=O)N/C(=C(/C#N)c2cc(C)cc(C)c2)C(C)(C)C)c1C` [drawing 448], for which the EC80 with Spodoptera littoralis and with Heliothis virescens was 100 µg/mL (≈ 266 µM) in each case.

On to `Cc1cccc(/C(C#N)=C(\NC(=O)c2cccc(C)c2C)C(C)(C)C)c1`, for which the “Gene switch activity fold induction” value in data set [1] is recorded as 66 fold induction.

For the compound `Cc1cc(C)cc(/C(C#N)=C(\NC(=O)c2cccc(C)c2C)C(C)(C)C)c1` [drawing 460], the “Gene switch activity fold induction” value in data set [1] is given as 893 fold induction.

Turning to `Cc1cccc(/C(C#N)=C(\NC(=O)c2cccc(Br)c2C)C(C)(C)C)c1` [drawing 457], the “Gene switch activity fold induction” value in data set [1] worked out at 1012 fold induction.

Turning to `CC(C)(C)/C(NC(=O)c1c(F)cccc1F)=C(\C#N)c1ccccc1` [drawing 446], the concentration for an effect of 80% (EC80) with Spodoptera littoralis and with Heliothis virescens was greater than 100 µg/mL throughout.

`CCc1ccc(C(=O)N/C(=C(/C#N)c2ccccc2)C(C)(C)C)cc1` [drawing 464]: in data set [1], the “Gene switch activity fold induction” value is 394 fold induction.

In the case of `Cc1cc(C)cc(/C(C#N)=C(\NC(=O)c2cccc(Br)c2C)C(C)(C)C)c1` [drawing 458], the “Gene switch activity fold induction” value in data set [1] was found to be 1121 fold induction.
